# Like-named read-outs stand apart in the source and are kept apart here.
# Experiments:
# [1] = Cytotoxicity to MT-4 cells not infected with HIV (MTT method); format: cell-based; conditions: human
# Description: (§1) In RPMI 1640 culture medium supplemented with 10% heat-inactivated fetal bovine serum, 2 mM of L-glutamine, 100 U/mL of penicillin G and 100 μg/mL of streptomycin, MT-4 cells (HTLV-1 transformed T4-cell line) at a concentration of 1×10^4 /well in a flat-bottom, microtiter plate were infected with 500 TCID50 of HIV-1 (HTLV-IIIB strain). Immediately after virus infection, sample serially diluted with culture medium from stock solution prepared in dimethyl sulfoxide was added to each well in quadriplicate. After 6 days incubation at 37° C., the viability of mock and HIV-infected cells was determined by the 3-(4,5-dimethylthiazol-2-yl)-2,5-diphenyltetrazolium bromide (MTT) method. And also, the cytotoxicity of sample to MT-4 cells not infected with HIV was assessed in parallel with its antiviral activity under the same way as above.
# [2] = system: HIV-1 (HTLV-IIIB strain); test: Inhibitory activity for HIV-induced cytopathogenicity (MT-4 cells, MTT method); format: cell-based; conditions: read-out: 50% inhibitory concentration of HIV infection
# Description: as §1
# [3] = system: human immunodeficiency virus (HIV); conditions: cited from earlier work; for side effects: patients, clinical use
# [4] = MT-4 cells not infected with HIV, 6 days, 37° C., MTT, read-out: 50% cytotoxic concentration to MT-4 cells
# [5] = Human immunodeficiency virus 1, IIIB, MT4, 144 h
Compound,"CC50 at 144 h [1, 4] [µM]","IC50 [2, 5] [nM]",clinical and immunological status of patients ([3]; patients with AIDS and AIDS-related complex),side effects [3],CC50 at 144 h ([1]; mt-4 cells) [µM],"IC50 ([2]; Human immunodeficiency virus 1, MT4, 144 h, MT-4 cells infected with 500 TCID50 HIV-1 (HTLV-IIIB strain), 6 days, 37° C., MTT) [nM]"
"Cc1cn([C@H]2C[C@H](N=[N+]=[N-])[C@@H](CO)O2)c(=O)[nH]c1=O [AZT, 3'-Deoxy-3'-azidothymidine, reference compound]",22.7,4.6,proven to improve the clinical and immunological status of patients with AIDS and AIDS-related complex,serious side effects such as anemia and leukopenia,,
"CCCCn1c([Se]c2cc(C)cc(C)c2)c(C(C)C)c(=O)[nH]c1=O [Compound 83, 1-butyl-6-[(3,5-dimethylphenyl)selenenyl]-5-isopropyluracil]",28.2,2,,,,
"CC(C)c1c([Se]c2ccccc2)n(CCCc2ccccc2)c(=O)[nH]c1=O [Compound 84, 5-isopropyl-1-(3-phenylpropyl)-6-(phenylselenenyl)uracil]",28,8,,,,
"Cc1cc(C)cc([Se]c2c(C(C)C)c(=O)[nH]c(=O)n2CCCc2ccccc2)c1 [Compound 86, 6-[(3,5-dimethylphenyl)selenenyl]-5-isopropyl-1-(3-phenylpropyl)-uracil]",26.9,0.6,,,,
"Nc1ccn([C@H]2CC[C@@H](CO)O2)c(=O)n1 [DDC, 2',3'-dideoxycytidine, reference compound]",,,,side effects such as peripheral neuropathy and pancreatitis,17.6,600
"O=c1[nH]cnc2c1ncn2[C@H]1CC[C@@H](CO)O1 [DDI, 2',3'-dideoxyinosine]",,,,side effects such as peripheral neuropathy and pancreatitis,,

# Source: patent US5889013A, “Pyrimidine acyclonucleoside derivatives” (priority 1994, dated 1999)
